Test results: patent US9334265B2, “3-amino-pyrazole derivatives useful against tuberculosis” (GLAXO GROUP LIMITED, priority 2010, dated 2016)
In brackets after ≈: the same amount, converted by molar mass. Read-outs that look alike come from different tables or passages of the source.

Legend:
InhA = target: T1, InhA (Mycobacterium tuberculosis, UniProt P9WGR1); assay: Mycobacterium tuberculosis InhA Inhibition Assay (Enzyme Assay); type: biochemical; conditions: 5 nM InhA, 50 μM DDCoA, 50 μM NADH, PIPES buffer pH 6.8, initial velocities of NADH consumption
T1 construct: made in house; host or cells: E. coli
T1 sequence (P9WGR1 whole entry, looked up): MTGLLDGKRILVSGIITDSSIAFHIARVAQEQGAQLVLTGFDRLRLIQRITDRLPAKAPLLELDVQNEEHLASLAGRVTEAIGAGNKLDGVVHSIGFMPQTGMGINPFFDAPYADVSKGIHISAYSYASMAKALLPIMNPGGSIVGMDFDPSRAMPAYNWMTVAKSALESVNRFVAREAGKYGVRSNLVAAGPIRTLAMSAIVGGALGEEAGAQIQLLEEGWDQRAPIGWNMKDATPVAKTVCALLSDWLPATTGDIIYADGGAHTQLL
Method: InhA is able to reduce 2-trans enoyl-CoA esters with concomitant oxidation of NADH to NAD^+. The assay format is based on the kinetic detection of NADH consumption.
Assay for InhA inhibition is carried out with mycobacterium recombinant protein expressed and purified form E. coli. Standard assay conditions for the determination of kinetic constants and inhibitors activity use 5 nM of InhA, 50 μM of Dodecenoyl-CoA synthesized and purified as described by Quémard et al (DDCoA) and 50 μM of NADH as substrates, and it is carried out in 30 mM PIPES buffer pH 6.8, containing 0.05% of BSA. […] Triclosan is used as positive control in every experiment. One μl of compounds is added to the wells containing 25 μl of the DDCoA+NADH mix, the reaction is started by adding 50 μl of the enzyme solution. Fluorescence from NADH is followed at room temperature during 20 minutes in a fluorescent plate reader (excitation at 340 nm; emission at 480 nm). IC50 values are determined using initial velocities of NADH consumption. • Quémard A, Sacchettini J C, Dessen A, et al. Enzymatic characterization of the target for isoniazid in Mycobacterium tuberculosis. Biochemistry 1995; 34:8235-41. Results of the Mycobacterium tuberculosis InhA Inhibition Assay (Enzyme Assay)

[1] = system: Mycobacterium tuberculosis H37Rv; assay: Mycobacterium tuberculosis H37Rv Inhibition Assay (Whole Cell Assay); type: cell-based; conditions: ATCC 25618 / H37Rv, H37Rv strain (ATCC25618), Middlebrook 7H9, six days at 37° C., resazurin fluorescence after 48 hours

SMILES | IC50 (InhA; read-out: IC50 value) | MIC [1] | IC50 (InhA; IC50 value)
Cc1csc(C(C)(O)c2nnc(Nc3ccn(Cc4cccc(F)n4)n3)s2)n1 (centres unmarked) [Example 18, 1-[5-({1-[(6-fluoro-2-pyridinyl)methyl]-1H-pyrazol-3-yl}amino)-1,3,4-thiadiazol-2-yl]-1-(4-methyl-1,3-thiazol-2-yl)ethanol] | ≤ 120 nM | ≤ 1 µM | –
Cc1csc(C(C)(O)c2nnc(Nc3ccn(Cc4nccc5ccccc45)n3)s2)n1 (centres unmarked) [Example 19, 1-(5-{[1-(1-isoquinolinylmethyl)-1H-pyrazol-3-yl]amino}-1,3,4-thiadiazol-2-yl)-1-(4-methyl-1,3-thiazol-2-yl)ethanol] | ≤ 111 nM | 4 to 10 µM (≈ 1.8 to 4.5 µg/mL) | –
Cc1csc(C(C)(O)c2nnc(Nc3ccn(Cc4cccc5cccnc45)n3)s2)n1 (centres unmarked) [Example 20, 1-(4-methyl-1,3-thiazol-2-yl)-1-(5-{[1-(8-quinolinylmethyl)-1H-pyrazol-3-yl]amino}-1,3,4-thiadiazol-2-yl)ethanol] | ≤ 111 nM | ≤ 4 µM | –
Cc1csc(C(C)(O)c2nnc(Nc3ccn(Cc4cc(C)on4)n3)s2)n1 (centres unmarked) [Example 22, 1-[5-({1-[(5-methyl-3-isoxazolyl)methyl]-1H-pyrazol-3-yl}amino)-1,3,4-thiadiazol-2-yl]-1-(4-methyl-1,3-thiazol-2-yl)ethanol] | 124 to 248 nM | 4 to 10 µM (≈ 1.61 to 4.03 µg/mL) | –
Cc1ccn(C(C)c2nnc(Nc3ccn(Cc4csc(C)n4)n3)s2)n1 (centres unmarked) [Example 23, 5-[1-(3-methyl-1H-pyrazol-1-yl)ethyl]-N-{1-[(2-methyl-1,3-thiazol-4-yl)methyl]-1H-pyrazol-3-yl}-1,3,4-thiadiazol-2-amine] | 129 to 259 nM | 4 to 10 µM (≈ 1.55 to 3.87 µg/mL) | –
Cc1csc(C(C)(O)c2nnc(Nc3ccn(Cc4cn5ccccc5n4)n3)s2)n1 (centres unmarked) [Example 24, 1-(5-{[1-(imidazo[1,2-a]pyridin-2-ylmethyl)-1H-pyrazol-3-yl]amino}-1,3,4-thiadiazol-2-yl)-1-(4-methyl-1,3-thiazol-2-yl)ethanol] | 114 to 228 nM | 4 to 10 µM (≈ 1.75 to 4.39 µg/mL) | –
Cc1csc(C(C)(O)c2nnc(Nc3ccn(Cc4cnn(C)c4)n3)s2)n1 (centres unmarked) [Example 25, 1-[5-({1-[(1-methyl-1H-pyrazol-4-yl)methyl]-1H-pyrazol-3-yl}amino)-1,3,4-thiadiazol-2-yl]-1-(4-methyl-1,3-thiazol-2-yl)ethanol] | – | > 10 µM | 248 to 1240 nM
Cc1csc(C(C)(O)c2nnc(Nc3ccn(Cc4c(C)noc4C)n3)s2)n1 (centres unmarked) [Example 26, 1-[5-({1-[(3,5-dimethyl-4-isoxazolyl)methyl]-1H-pyrazol-3-yl}amino)-1,3,4-thiadiazol-2-yl]-1-(4-methyl-1,3-thiazol-2-yl)ethanol] | – | > 10 µM | > 1200 nM
Cc1ccn(C(C)c2nnc(Nc3ccn(Cc4c(C)noc4C)n3)s2)n1 (centres unmarked) [Example 27, N-{1-[(3,5-dimethyl-4-isoxazolyl)methyl]-1H-pyrazol-3-yl}-5-[1-(3-methyl-1H-pyrazol-1-yl)ethyl]-1,3,4-thiadiazol-2-amine] | – | > 10 µM | > 1300 nM
Cc1csc(C(C)(O)c2nnc(Nc3cc(C)n(Cc4ncccc4F)n3)s2)n1 (centres unmarked) [Example 28, 1-[5-({1-[(3-fluoro-2-pyridinyl)methyl]-5-methyl-1H-pyrazol-3-yl}amino)-1,3,4-thiadiazol-2-yl]-1-(4-methyl-1,3-thiazol-2-yl)ethanol] | – | ≤ 4 µM | ≤ 116 nM
Cc1ccn(C(C)c2nnc(Nc3cc(C)n(Cc4ncccc4F)n3)s2)n1 (centres unmarked) [Example 29, N-{1-[(3-fluoro-2-pyridinyl)methyl]-5-methyl-1H-pyrazol-3-yl}-5-[1-(3-methyl-1H-pyrazol-1-yl)ethyl]-1,3,4-thiadiazol-2-amine] | – | ≤ 4 µM | ≤ 125 nM
CCOc1cnc(Cn2ccc(Nc3nnc(C(C)(O)c4nc(C)cs4)s3)n2)c(F)c1 (centres unmarked) [Example 30, 1-{5-[(1-{[5-(ethyloxy)-3-fluoro-2-pyridinyl]methyl}-1H-pyrazol-3-yl)amino]-1,3,4-thiadiazol-2-yl}-1-(4-methyl-1,3-thiazol-2-yl)ethanol] | – | > 10 µM | 217 to 1080 nM
COc1c(C)cnc(Cn2ccc(Nc3nnc(C(C)(O)c4nc(C)cs4)s3)n2)c1C (centres unmarked) [Example 31, 1-{5-[(1-{[3,5-dimethyl-4-(methyloxy)-2-pyridinyl]methyl}-1H-pyrazol-3-yl)amino]-1,3,4-thiadiazol-2-yl}-1-(4-methyl-1,3-thiazol-2-yl)ethanol] | – | > 10 µM | 219 to 1090 nM
Cc1csc(C(C)(O)c2nnc(Nc3ccn(Cc4c(F)cncc4F)n3)s2)n1 (centres unmarked) [Example 32, 1-[5-({1-[(3,5-difluoro-4-pyridinyl)methyl]-1H-pyrazol-3-yl}amino)-1,3,4-thiadiazol-2-yl]-1-(4-methyl-1,3-thiazol-2-yl)ethanol] | – | > 10 µM | > 1150 nM
Cc1csc(C(C)(O)c2nnc(Nc3ccn(Cc4[nH]ccc(=O)c4F)n3)s2)n1 (centres unmarked) [Example 33, 3-fluoro-2-{[3-({5-[1-hydroxy-1-(4-methyl-1,3-thiazol-2-yl)ethyl]-1,3,4-thiadiazol-2-yl}amino)-1H-pyrazol-1-yl]methyl}-4(1H)-pyridinone] | – | > 10 µM | > 1150 nM
Cc1csc(C(C)c2nnc(Nc3ccn(Cc4ncccc4F)n3)s2)n1 (centres unmarked) [Example 34, N-{1-[(3-fluoro-2-pyridinyl)methyl]-1H-pyrazol-3-yl}-5-[1-(4-methyl-1,3-thiazol-2-yl)ethyl]-1,3,4-thiadiazol-2-amine] | ≤ 125 nM | ≤ 4 µM | –
Cc1cc(C)n(C(C)c2nnc(Nc3ccn(C(C)c4ncccc4F)n3)s2)n1 (centres unmarked) [Example 35, 5-[1-(3,5-dimethyl-1H-pyrazol-1-yl)ethyl]-N-{1-[1-(3-fluoro-2-pyridinyl)ethyl]-1H-pyrazol-3-yl}-1,3,4-thiadiazol-2-amine] | ≤ 121 nM | > 10 µM | –
CCOc1cccc(Cn2ccc(Nc3nnc(C(C)n4nc(C)cc4C)s3)n2)n1 (centres unmarked) [Example 36, 5-[1-(3,5-dimethyl-1H-pyrazol-1-yl)ethyl]-N-(1-{[6-(ethyloxy)-2-pyridinyl]methyl}-1H-pyrazol-3-yl)-1,3,4-thiadiazol-2-amine] | ≤ 118 nM | > 10 µM | –
Cc1csc(C(C)(O)c2nnc(Nc3ccn(Cc4nccc(C)c4F)n3)s2)n1 (centres unmarked) [Example 37, 1-[5-({1-[(3-fluoro-4-methyl-2-pyridinyl)methyl]-1H-pyrazol-3-yl}amino)-1,3,4-thiadiazol-2-yl]-1-(4-methyl-1,3-thiazol-2-yl)ethanol] | ≤ 116 nM | ≤ 4 µM | –
Cc1csc(C(C)(O)c2nnc(Nc3nn(Cc4csc(C)n4)c4ccccc34)s2)n1 (centres unmarked) [Example 45, 1-(4-methyl-1,3-thiazol-2-yl)-1-[5-({1-[(2-methyl-1,3-thiazol-4-yl)methyl]-1H-indazol-3-yl}amino)-1,3,4-thiadiazol-2-yl]ethanol] | – | > 10 µM | 213 to 1060 nM
Cc1ccn(C(C)c2nnc(Nc3nn(Cc4csc(C)n4)c4ccccc34)s2)n1 (centres unmarked) [Example 46, N-{5-[1-(3-methyl-1H-pyrazol-1-yl)ethyl]-1,3,4-thiadiazol-2-yl}-1-[(2-methyl-1,3-thiazol-4-yl)methyl]-1H-indazol-3-amine] | – | > 10 µM | > 1150 nM
CCc1csc(C(C)(O)c2nnc(Nc3ccn(Cc4csc(C)n4)n3)s2)n1 (centres unmarked) [Example 47, 1-(4-ethylthiazol-2-yl)-1-(5-((1-((2-methylthiazol-4-yl)methyl)-1H-pyrazol-3-yl)amino)-1,3,4-thiadiazol-2-yl)ethanol] | – | ≤ 1 µM | ≤ 115 nM
